Results from patent publication EP0324875A1 (priority 1988, dated 1989).
Read-outs that look alike come from different tables or passages of the source.

What was measured:
[1] = system: Virus FPV (Stamm Weibridge); assay type: cell-based, Grippe-Virus A/H7N7/; conditions: for inf. Titer in PBE/ml / XA-Titer: MOI = 0,5
Grippe-Virus B/Lii = experiment: One-cycle test, virus yield in calf kidney cell culture; assay type: cell-based; conditions: MOI = 1
Description: Bei den Mehrcyclen- und Eincyclustests werden einschichtige Zellkulturen einer embryonalen Kalbsniere verwendet, welche mit Grippe-Viren A/H3N2/Texas/77 und B/Lii/MOI = 0.01-0.5 und 1-10 entsprechend infiziert werden. Die Ausbeute an infektiösem und hämaglutinierendem Virus wird in der 24sten Stunde (bei einem Mehrcyclentest) und entsprechend in der zwölften bis fünfzehnten Stunde (bei einem Eincyclustest) ausgerechnet. Der infektiöse Titer wird EID₅₀/ml bestimmt. Dieselben Versuche werden auch mit Virus FPV (Stamm Weibridge) in Zellen EHF(bei Ausrechnung des infektiösen Virus Plaque-bildenden Einheiten und des hämaglutinierenden Virus) durchgeführt. Die Wirksamkeit der Verbindungen wird im Bezug auf die Kontrolle (ohne Inhibitoren) ausgerechnet.

Virus FPV = experiment: organism not typed; assay type: cell-based, Grippe-Virus A/H7N7/; conditions: 72 h; for Inhibitionsprozent (Verminderung der Plaquebildung): Zellen EHF
[2] = DD-13 18,7 mg/kg
[3] = read-out: Inhibitionsprozent (Verminderung der Plaquebildung)

## CC(N)C12CC3CC(CC(C3)C1)C2 (stereo not drawn) [Rimantadin, reference compound]
[1]; 5 mkg/ml Rimantadin alone
  Verminderung der Ausbeute des hämaglutivierenden Virus (fold): 64
[1]; Rim. 1 mkg/ml alone, control 1.7x10^7
  inf. Titer in PBE/ml: 4,2x10^4 PBE/ml
[1]; Rim. 1 mkg/ml alone, control 2048
  XA-Titer: 32
[1]; Rim. 5 mkg/ml alone, control 1.7x10^7
  inf. Titer in PBE/ml: 4,4x10^4 PBE/ml
[1]; Rim. 5 mkg/ml alone, control 2048
  XA-Titer: 32
Grippe-Virus B/Lii; Rim. 5 mkg/ml alone, control 6,3
  inf. Titer in log. EID50/ml: 6,0 log. EID50/ml
Grippe-Virus B/Lii; Rim. 5 mkg/ml alone, control 8
  XA-Titer: 4
Grippe-Virus B/Lii; Rim. 25 mkg/ml alone, control 6,3
  inf. Titer in log. EID50/ml: 4,7 log. EID50/ml
Grippe-Virus B/Lii; Rim. 25 mkg/ml alone, control 8
  XA-Titer: 4
Virus FPV; [3]
  inhibition at 0.0001 µM: 3.52%
  inhibition at 0.001 µM: 18.4%
  inhibition at 0.01 µM: 48%
Virus FPV; Rimantadin 10^-9 M/1 alone
  Inhibitionsprozent (Verminderung der Plaquebildung): 18,37 ± 14,19%

## O=C1NCCCN1CN1CCOCC1 [DD-13]
[1]; 60 mkg/ml DD-13 alone
  Verminderung der Ausbeute des hämaglutivierenden Virus (fold): viermalige
[1]; DD-13 15 mkg/ml alone, control without inhibitors 1.7x10^7
  inf. Titer in PBE/ml: 5x10^6 PBE/ml
[1]; DD-13 15 mkg/ml alone, control without inhibitors 2048
  XA-Titer: 1024
[1]; DD-13 30 mkg/ml alone, control 1.7x10^7
  inf. Titer in PBE/ml: 6,9x10^6 PBE/ml
[1]; DD-13 30 mkg/ml alone, control 2048
  XA-Titer: 512
[1]; DD-13 60 mkg/ml alone, control 1.7x10^7
  inf. Titer in PBE/ml: 3,9x10^6 PBE/ml
[1]; DD-13 60 mkg/ml alone, control 2048
  XA-Titer: 256
[2]
  dose as fraction of LD50: 1/213
Grippe-Virus B/Lii; DD-13 12,5 (unit not given) alone, control without inhibitors 6,3
  inf. Titer in log. EID50/ml: 4,0 log. EID50/ml
Grippe-Virus B/Lii; DD-13 12,5 (unit not given) alone, control without inhibitors 8
  XA-Titer: 8
Grippe-Virus B/Lii; DD-13 25 (unit not given) alone, control 6,3
  inf. Titer in log. EID50/ml: 2,5 log. EID50/ml
Grippe-Virus B/Lii; DD-13 25 (unit not given) alone, control 8
  XA-Titer: 4
Grippe-Virus B/Lii; DD-13 50 (unit not given) alone, control 6,3
  inf. Titer in log. EID50/ml: 2,0 log. EID50/ml
Grippe-Virus B/Lii; DD-13 50 (unit not given) alone, control 8
  XA-Titer: 4
Virus FPV; [3]
  inhibition at 10 µM: 2.3%
  inhibition at 30 µM: 15.2%
  inhibition at 100 µM: 34.3%
  inhibition at 300 µM: 85%
  inhibition at 1000 µM: 99.2%
Virus FPV; DD-13 3x10^-4 M/1 alone
  Inhibitionsprozent (Verminderung der Plaquebildung): 85,00%
